From publication PMC11024854 (Theranostics, 2024)
pKd: −log10 of the molar value.

Experiments:
HSP90α (HSP90AA1) = biological target: T1, HSP90α (HSP90AA1) (Homo sapiens, UniProt P07900); test: SPR (Biacore […], immobilized HSP90AA1); also C-terminal HSP90α:PPID AlphaLISA inhibition at […]; assay type: binding
T1 construct: recombinant human HSP90AA1 protein

HSP90α = biological target: T2, HSP90α (Homo sapiens, UniProt P07900); test: competitive binding assay against FITC-labeled geldanamycin ([…] compound)
T2 construct: gene HSP90AA1; purified recombinant HSP90α (N-terminal domain assay kit)

| SMILES | pKd (HSP90α (HSP90AA1)) | competitive binding assay against FITC-labeled geldanamycin (1000 nM compound) (HSP90α) |
| --- | --- | --- |
| COc1c(C(=O)Nc2ccc3c(C)nn(CCC4CCN(C)CC4)c3c2)ccc2c1C=CC(C)(C)O2 [HVH-2930] | 4.01 |  |
| CC(C)c1cc(C(=O)N2Cc3ccc(CN4CCN(C)CC4)cc3C2)c(O)cc1O [onalespib] |  | unlike the N-terminal HSP90 inhibitors, neither HVH-2930 nor novobiocin exhibited any binding activity to the N-terminal region of HSP90α |
